Tested on in one data set: not given
Assay: not given
Settings: not given
With `COc1ccc(-n2nnnc2C(F)(F)F)cc1CN1C[C@@H]2CN(S(=O)(=O)N(C)C)CCN2[C@H](C(c2ccccc2)c2ccccc2)C1.Cl.Cl`, the melting point was in the range of 148 to 152 °C.
In turn, `COc1ccc(-n2nnnc2C(F)(F)F)cc1CN1C[C@@H]2CN(C(=O)C3CCCCC3)CCN2[C@H](C(c2ccccc2)c2ccccc2)C1.Cl.Cl` had a melting point of 169 to 174.5 °C.
Still for that read-out and setting: for `COc1ccc(-n2nnnc2CC(F)(F)F)cc1CN1C[C@@H]2CN(C(=O)c3cccnc3)CCN2[C@H](C(c2ccccc2)c2ccccc2)C1.Cl.Cl.Cl` the value was 197 to 200 °C.
On the same count and under the same terms, to `COc1ccc(-n2nnnc2C(F)(F)F)cc1CN1C[C@@H]2CN(S(N)(=O)=O)CCN2[C@H](C(c2ccccc2)c2ccccc2)C1.Cl.Cl` belongs 174 to 176 °C; to `COc1ccc(-n2nnnc2C(F)(F)F)cc1CN1C[C@@H]2CN(C(=O)N(C)C)CCN2[C@H](C(c2ccccc2)c2ccccc2)C1.Cl.Cl`, 158 to 164 °C; to `COc1ccc(-n2nnnc2C(F)(F)F)cc1CN1C[C@@H]2CN(S(=O)(=O)CS(C)(=O)=O)CCN2[C@H](C(c2ccccc2)c2ccccc2)C1.Cl.Cl`, 162 to 168 °C.
The same measure, in the same setting: for `COc1ccc(-n2nnnc2C(F)(F)F)cc1CN1C[C@@H]2CN(c3cccnc3)CCN2[C@H](C(c2ccccc2)c2ccccc2)C1.Cl.Cl.Cl` the value was 175 to 178 °C; for `CNC(=O)N1CCN2[C@H](CN(Cc3cc(-n4nnnc4C(F)(F)F)ccc3OC)C[C@H]2C(c2ccccc2)c2ccccc2)C1.Cl.Cl`, 160 to 170 °C; for `COc1ccc(-n2nnnc2C(F)(F)F)cc1CN1C[C@@H]2CN(C(C=O)C(=O)N(C)C)CCN2[C@H](C(c2ccccc2)c2ccccc2)C1.Cl.Cl` (stereo partly shown), 155 to 168 °C.
In turn, `COc1ccc(-n2nnnc2C(F)(F)F)cc1CN1C[C@@H]2CN(CC(C)=O)CCN2[C@H](C(c2ccccc2)c2ccccc2)C1.Cl.Cl.Cl` yielded a melting point of 175 to 179 °C.
On the same count and under the same terms, for `COc1ccc(-n2nnnc2C(F)(F)F)cc1CN1C[C@@H]2CN(C(=O)C3CCCC3)CCN2[C@H](C(c2ccccc2)c2ccccc2)C1.Cl.Cl` the value was 170 to 178 °C (dec.); for `COc1ccc(-n2nnnc2C(F)(F)F)cc1CN1C[C@@H]2CN(C(=O)CCO)CCN2[C@H](C(c2ccccc2)c2ccccc2)C1.Cl.Cl`, 147 to 154 °C; for `COc1ccc(-n2nnnc2C(F)(F)F)cc1CN1C[C@@H]2CN(C(N)=O)CCN2[C@H](C(c2ccccc2)c2ccccc2)C1.Cl.Cl`, 165 to 190 °C.
Consider `COc1ccc(-n2nnnc2C(F)(F)F)c(OC)c1CN1C[C@@H]2CN(C(=O)CO)CCN2[C@H](C(c2ccccc2)c2ccccc2)C1.Cl.Cl`, for which the melting point lay within 128 to 132 °C.
As to `COc1ccc(-n2nnnc2C(F)(F)F)cc1CN1C[C@@H]2CN(C(=O)COC(C)=O)CCN2[C@H](C(c2ccccc2)c2ccccc2)C1.Cl.Cl`, the melting point lay within 138 to 153 °C.
Still for that read-out and setting: to `COc1ccc(-n2nnnc2C(F)(F)F)cc1CN1C[C@@H]2CC(NC(=O)CO)CN2[C@H](C(c2ccccc2)c2ccccc2)C1.Cl.Cl` (stereo partly shown) belongs 155 to 159 °C; to `COc1ccc(-n2nnnc2C(F)(F)F)cc1CN1C[C@@H]2CN(C(=O)CO)CCN2[C@H](C(c2ccccc2)c2ccccc2)C1.Cl.Cl`, 140 to 159 °C; to `COc1ccc(-n2nnnc2C(F)(F)F)cc1CN1C[C@@H]2CN(C(=O)[C@H](C)O)CCN2[C@H](C(c2ccccc2)c2ccccc2)C1.Cl.Cl`, 150 to 158 °C.
On the same count and under the same terms, for `COCCC(=O)N1CCN2[C@H](CN(Cc3cc(-n4nnnc4C(F)(F)F)ccc3OC)C[C@H]2C(c2ccccc2)c2ccccc2)C1.Cl.Cl` the value was 132 to 135 °C; for `COc1ccc(-n2nnnc2C(F)(F)F)cc1CN1C[C@@H]2CN(C3CCC3)CCN2[C@H](C(c2ccccc2)c2ccccc2)C1.Cl.Cl.Cl`, 184 to 187 °C; for `COc1ccc(-n2nnnc2C(F)(F)F)cc1CN1C[C@@H]2CN(C(=O)CC(F)(F)F)CCN2[C@H](C(c2ccccc2)c2ccccc2)C1.Cl.Cl`, 155 to 160 °C.
Still for that read-out and setting: for `COc1ccc(-n2nnnc2C(F)(F)F)cc1CN1C[C@@H]2CN(C(=O)C(C)(C)OC(C)=O)CCN2[C@H](C(c2ccccc2)c2ccccc2)C1.Cl.Cl` the value was 143 to 148 °C.

The subject of a further data set is Emesis in the Dog. The experiment in a line: Emesis in the Dog (apomorphine-induced retching and vomiting). The class given is in vivo. The settings on record: adult female dogs; test compound i.v. at the dose of 1.0 mg/kg; 5 min later subcutaneous apomorphine (0.1 mg/0.5 ml/kg); observed for the next 60 min. How it is done:
Individually housed adult female dogs (8 to 15 kg) were given an i.v. injection of a solution containing a test compound. 5 Min later the emetic responses (retching and vomiting) were induced by administration of subcutaneous apomorphine (0.1 mg/0.5 ml/kg) and observed for the next 60 min. The timing and number of retches and vomits observed were recorded for each animal. An individual animal was tested with at least 10 days between experiments.
With `COc1ccc(-n2nnnc2C(F)(F)F)c(OC)c1CN1C[C@@H]2C[C@@H](NC(C)=O)CN2[C@H](C(c2ccccc2)c2ccccc2)C1.Cl.Cl` [52-(14), N-[(4R, 7R, 8aS)-4-Benzhydryl-2-[2,6-dimethoxy-3-[5-(trifluoromethyl)-1H-tetrazol-1-yl]benzyl]octahydropyrrolo-[1,2-a]pyrazin-7-yl]acetamide dihydrochloride], the “inhibition rate of emesis in the dog” value was determined as 100%.
On the same count and under the same terms, to `COc1ccc(-n2nnnc2C(F)(F)F)c(OC)c1CN1CCN(Cc2cnn(C)c2)[C@H](C(c2ccccc2)c2ccccc2)C1.Cl.Cl` [57-(1), (2R)-2-Benzhydryl-4-[2,6-dimethoxy-3-[5-(trifluoromethyl)-1H-tetrazol-1-yl]benzyl]-1-[(1-methyl-1H-pyrazol-4-yl)methyl]piperazine dihydrochloride] belongs 100%; to `COc1ccc(-n2nnnc2C(F)(F)F)c(OC)c1CN1C[C@@H]2CN(C(=O)N(C)C)CCN2[C@H](C(c2ccccc2)c2ccccc2)C1.Cl.Cl` [52-(5), (6R,9aR)-6-Benzhydryl-8-[2,6-dimethoxy-3-[5-(trifluoromethyl)-1H-tetrazol-1-yl]benzyl]-N,N-dimethyloctahydro-2H-pyrazino[1,2-a]pyrazine-2-carboxamide dihydrochloride], 100%.

Usually melting point stands for the temperature, or range, at which the solid turns liquid.

The values are drawn from patent publication US20040220403A1, “1-(2-Methoxybenzyl)-3-benzhydrylpiperazines as tachykinin anatgonists” (priority 2001, published 2004).
